From patent US20210113493A1, “KETAMINE FOR THE TREATMENT OF M[…] SYMPTOMS” (priority 2016, published 2021)

Experiments:
[1] = system: subclinical menstrually related symptoms; conditions: 50 mg lozenges, ½ to 2 once to three times daily
[2] = system: symptoms of menstrual related pain and emotion; assay: Evaluation of sublingual ketamine lozenges/ODTs in women, Daily Record of Severity of Problems
[3] = Aun, Br. J. Anaesthesia 83: 29-41 (1999); cited from earlier work

SMILES: N[C@@]1(c2ccccc2Cl)CCC[C@@H](O)C1=O
- mental clarity [1]: can experience an increase in mental clarity

SMILES: CNC1(c2ccccc2Cl)CCCCC1=O (racemic) [ketamine]
- subjects reporting sufficient improvement with a 25 mg dose ([2]; 25 mg dose, 9 women): Three subjects reported sufficient improvement
- interference with functionality ([2]; 50 mg dose, 9 women): One subject reported that a 50 mg dose interfered with their functionality
- relief of PMS symptoms at 100 mg dose ([2]; 100 mg dose, preferred by three subjects): substantial relief of PMS symptoms
- negative after effects ([2]; 9 women): no reports of negative after effects
- subjects reporting emotional symptom improvement during the symptomatic days of their cycles ([2]; 9 women, 25-100 mg ketamine racemate sublingual lozenge/ODT): 9 subjects
- duration of effect ([2]; all subjects, beyond the time of administration): lasting for days, or more, beyond the time of ketamine administration
- effect on breast tenderness and cramping ([2]; physical symptoms, 9 women): positively affected in three subjects, but not in six others
- improvement of headaches ([2]; physical symptoms, 9 women): Two subjects reported improvement of headaches
- duration of anesthetic effects ([2]; sublingual, first hour the intense portion): up to 2 hours
- duration of relief of physical symptoms ([2]; two subjects, doses of 50 mg and 100 mg, until menses began): 5 days

SMILES: CN[C@]1(c2ccccc2Cl)CCCCC1=O [S-(+)-ketamine]
- potency for use in anesthesia relative to R-(−)-ketamine [3]: twice as potent as R-(−)-ketamine

SMILES: NC1(c2ccccc2Cl)CCCCC1=O (stereo not shown) [norketamine]
- potency for use in anesthesia relative to ketamine [3]: one third the potency of ketamine
